From patent US10369123B2, “Perk activator for the treatment of neurodegenerative diseases” (DEUTSCHES ZENTRUM FÜR NEURODEGENERATIVE ERKRANKUNGEN E.V. …, priority 2014, dated 2019)

Columns and labels:
Assay type in all cases: cell-based, human
[1] = system: 3R/4R MAPT mRNA, splicing factor SRSF2; experiment: Quantitative PCR of MAPT isoforms and splicing factors, annonacin model; conditions: annonacin
Method: (§1) Nunc™ Nunclon™ Delta 6-well (for protein and mRNA) or 48-well (for cell assays) plates (Thermo Fisher Scientific, Waltham, Mass., USA) were coated with 100 μg/ml poly-L-lysine (Sigma-Aldrich, St. Louis, Mo., USA) and 5 μg/ml fibronectin (Sigma-Aldrich). LUHMES (Lund Human Mesencephalic) cells, derived from human embryonic ventral mesencephalic cells by conditional immortalization (Tet-off v-myc over-expression) were seeded out in a concentration of 130,000 cells/cm^2 to achieve a confluence of 50%. They were then differentiated for 8 days in a medium of DMEM/F12 (Sigma-Aldrich), 1 μg/ml tetracycline, […] and 490 μg/ml dbcAMP into post-mitotic neurons with a dopaminergic phenotype (Lotharius et al. 2005).
(§2) For all experiments with annonacin, the medium was replaced during the intoxication period with new medium containing glucose levels reduced to 250 μM, i.e. the physiological concentration in the human brain.
(§3) RNA from human tissue samples was extracted by grinding the tissue in liquid nitrogen to a powder and then dissolving it in the RA1 buffer supplied as part of the NucleoSpin® RNA (Macherey Nagel) RNA extraction kit+1% (v/v) 2-mercaptoethanol (Sigma-Aldrich). RNA from cells was extracted by scraping the cells from the culture plate with RA1 buffer+1% (v/v) 2-mercaptoethanol. The remaining extraction procedure was according to the manufacturer's instructions for the NucleoSpin® RNA kit. RNA concentrations were determined using the NanoDrop 2000c Spectrophotometer. The RNA was then transcribed into cDNA with the iScript™ cDNA Synthesis Kit (BioRad) using the manufacturer's instructions. Real-Time PCR was performed on the Applied Biosystems® StepOnePlus™ (Life Technologies) system using TagMan® Universal Master Mix II and TaqMan® primers against total MAPT, MAPT 3R, MAPT 4R, EIF2A, EI2AK3 and ATF4. POL2A and PSCM1 served as reference targets as they were determined to be the most stably expressed across experimental conditions. The results were analyzed using the StepOne Plus software (Life Technologies) and Qbase software (Biogazelle) and were then graphically and statistically analyzed with Prism 6 (GraphPad Software). Absolute quantification was performed by creating a standard curve with plasmids containing either the 2N3R or the 2N4R spliced variant of MAPT (see Table 2). The absolute quantity was computed by deriving the relationship between CT values and absolute quantity with the StepOne Plus software.

LUHMES neurons [2] = experiment: MTT assay, annonacin-treated LUHMES neurons; conditions: annonacin alone, different concentrations, 48 h
Method: as §1, §2
Thiazolyl Blue Tetrazolium […] (MTT) (Sigma Aldrich) was dissolved in sterile PBS to a concentration of 5 mg/ml. This stock solution was added to the cells in culture medium to achieve a final concentration of 0.5 mg/ml. The 48-well culture plate was then incubated at 37° C. for 1 h, the medium removed completely and frozen at −80° C. for 1 h. The plate was then thawed, 300 μl DMSO (AppliChem, Darmstadt, Germany) was added per well and the plate was shaken to ensure complete dissolution of the violet crystals. 100 μl from each well were transferred to a new 96-well plate and the absorbance was read with the FLUOstar Omega (BMG Labtech) platereader at a wavelength of 590 nm (reference wave length 630 nm). The data was analyzed using the MARS Data Analysis Software (BMG Labtech) and Prism 6.

[3] = system: EIF2AK3, EIF2A and ATF4 mRNA; experiment: Quantitative PCR of UPR genes in differentiated LUHMES neurons; conditions: 48 h; for ATF4 mRNA expression: thapsigargin 30 nM or annonacin 25 nM
Method: as §1, §2, §3

[4] = system: 4R-tau and 3R-tau isoforms; experiment: Western blot of 3R-/4R-tau isoforms, annonacin model; conditions: annonacin 25 nM, 48 h
Method: as §1, with “2005). […]” for “2005).”
Protein was extracted by scraping the cells from the culture plate with Mammalian Protein Extraction Reagent (M-PER, Thermo Fisher Scientific) and 1× cOmplete Protease Inhibitor Cocktail Tablets (Hoffmann-La Roche, Basel, Switzerland) and 1× PhosSTOP Phosphatase Inhibitor Cocktail Tablets (Hoffmann-La Roche). […] Protein concentrations were determined using the BCA kit (Thermo Fisher Scientific) by heating the samples at 60° C. for 30 min and measuring the absorption on the NanoDrop 2000c Spectrophotometer (Thermo Fisher Scientific). […]

tau = experiment: Western blot of tau conformation and phosphorylation, annonacin model; conditions: annonacin 25 nM, 48 h
Method: as §1, §2
(§4) Protein was extracted by scraping the cells from the culture plate with Mammalian Protein Extraction Reagent (M-PER, Thermo Fisher Scientific) and 1× cOmplete Protease Inhibitor Cocktail Tablets (Hoffmann-La Roche, Basel, Switzerland) and 1× PhosSTOP Phosphatase Inhibitor Cocktail Tablets (Hoffmann-La Roche). For pNRF2 blots, cells were extracted with 2% SDS tris-buffer instead of M-PER in order to obtain whole cell extracts and not to lose the nuclear fraction. The protein solution was frozen at −80° C., immediately after retrieval, for a minimum of two hours. The solution was then thawed on ice, vortexed, centrifuged at 5000 g for 15 min at 4° C. and the supernatant retrieved. Protein concentrations were determined using the BCA kit (Thermo Fisher Scientific) by heating the samples at 60° C. for 30 min and measuring the absorption on the NanoDrop 2000c Spectrophotometer (Thermo Fisher Scientific).
(§5) 20 μg of protein (unless indicated otherwise) were adjusted to equal concentrations between samples by dilution with M-PER and subsequently heated at 95° C. for 5 minutes with Roti®-Load 1 (Carl Roth). SDS-PAGE was performed using Any kD™ Mini-PROTEAN® TGX™ Gels (BioRad, Berkeley, Calif., USA) in a tris-glycine running buffer. The protein was blotted onto PVDF membrane (BioRad) at 70 V for 65 minutes on ice. The membrane was blocked with 1× Roti®-Block solution (Carl Roth) for 1 h and then incubated at 4° C. overnight under gentle shaking with the primary antibody (see Table 5) in TBS with 5% BSA (Cell Signaling Technology) and 0.05% TWEEN (Sigma-Aldrich).
The membranes were then washed and incubated with the species specific HRP-bound secondary antibody (Vector Laboratories, Burlingame, Calif., USA) at 1:2500 in 1× Roti®-Block solution for 2 h, followed by further washing and exposure to Clarity Western ECL Substrate (BioRad) or, in the case of MC1 and 4R-tau, to Amersham™ ECL™ Prime (GE Healthcare). Chemiluminescence was detected with the Gel Doc™ XR System (BioRad) and analyzed with Image Lab™ software (BioRad), followed by graphical and statistical analysis with Prism 6 (GraphPad Software).

LUHMES neurons [5] = experiment: Morphological inspection and counts of viable cells; conditions: annonacin 25 nM, 48 h
Method: as §1, §2
The protection by the PERK activator against annonacin and 4R-tau protein overexpression was also evident on morphological inspection of the cells. […] Lentiviral 4R-tau overexpression had similar effects. […] Cell counts of viable cells with intact nuclear and somatic morphology were counted in randomly selected 1300×1000 sized areas in 4 biological replicates each, confirming the protective effects of Pa.

LUHMES neurons [6] = experiment: ATP assay, annonacin-treated LUHMES neurons; conditions: annonacin alone, different concentrations, 48 h
Method: as §1, §2
ATP assays were conducted using the ViaLight™ plus kit by Lonza according to the manufacturer's instructions. Luminescence was read with the FLUOstar Omega (BMG Labtech) platereader. The data was analyzed using the MARS Data Analysis Software (BMG Labtech) and Prism 6.

[7] = system: unfolded protein response (PERK, EIF2A); experiment: Western blot of UPR proteins in differentiated LUHMES neurons; conditions: 48 h; for phosphorylated EIF2A (pEIF2A) protein / phosphorylated PERK (pPERK) protein: thapsigargin 30 nM or annonacin 25 nM
Method: as §1, §2, §4
200 μg of protein were diluted to equal concentrations with M-PER lysis buffer (Thermo Fisher Scientific) up to 270 μl. The PERK D11A8 antibody (Cell Signaling Technology, Beverly, Mass., USA) was added to a concentration of 1:100 and allowed to bind the antigen for one hour in a rotating 1.5 ml microcentrifuge tube. Then 30 μl of protein sepharose A beads (Sigma-Aldrich, 3 mg per ml) were added to each tube and left rotating overnight at 4° C. The tubes were then centrifuged at 10,000 g for 3 minutes and the supernatant was discarded. The beads were washed in M-PER three times. Each time the beads were centrifuged and the supernatant was extracted with a Hamilton Syringe (Hamilton, Bonaduz, Switzerland) and discarded. The beads were then mixed with 15 μl 1× Roti®-Load 1 (Carl Roth) and heated at 95° C. for 5 minutes. After another centrifugation step of 10,000 g for 1 minute the supernatant was loaded onto a gel with the Hamilton syringe and then blotted as described below.
as §5
The membranes were then washed and incubated with the species specific HRP-bound secondary antibody (Vector Laboratories, Burlingame, Calif., USA) at 1:2500 in 1× Roti®-Block solution for 2 h, followed by further washing and exposure to Clarity Western ECL Substrate (BioRad) or, in the case of MC1 and 4R-tau, to Amersham™ ECL™ Prime (GE Healthcare). […]

| SMILES | splicing factor SRSF2 mRNA [1] | 4R-tau mRNA level ([1]; 48 h) | MTT signal (LUHMES neurons [2]) | EIF2A mRNA expression ([3]; annonacin 25 nM) | ATF4 mRNA expression [3] | 4R-tau protein level [4] | total tau protein (HT7) (tau) | AD2 (p-Ser-396 and 404) tau phosphorylation (tau; vs control) | CP13 (p-Ser-202) tau phosphorylation (tau; vs control) | MC1 pathological tau conformation (tau; vs control) | condensation of DNA to chromatin clumps (LUHMES neurons [5]) | density of the dendritic network (LUHMES neurons [5]) | ATP concentration (LUHMES neurons [6]) | total EIF2A protein ([7]; annonacin 25 nM, vs untreated) | total PERK protein ([7]; annonacin 25 nM, vs untreated) | phosphorylated EIF2A (pEIF2A) protein ([7]; vs untreated) | phosphorylated PERK (pPERK) protein ([7]; vs untreated) | EIF2AK3 mRNA expression ([3]; thapsigargin 30 nM) | pPERK/PERK ratio ([7]; thapsigargin 30 nM) |
| --- | --- | --- | --- | --- | --- | --- | --- | --- | --- | --- | --- | --- | --- | --- | --- | --- | --- | --- | --- |
| CCCCCCCCCCCC[C@@H](O)[C@H]1CC[C@H]([C@H](O)CCCC[C@H](O)CCCCC[C@@H](O)CC2=CC(C)OC2=O)O1 (stereo partly shown) [annonacin] | significantly increase | increase | concentration-dependent decline | upregulated | upregulated | increase | not altered | significantly increased | significantly increased | increased | led to the condensation of DNA to chromatin clumps | reduced | concentration-dependent decline | reduced | reduced | reduced | increased |  |  |
| C/C=C(/C)C(=O)O[C@H]1C(C)=C2[C@H]([C@@H]1OC(=O)CCCCCCC)[C@@](C)(OC(C)=O)C[C@H](OC(=O)CCC)[C@@]1(O)[C@H]2OC(=O)[C@@]1(C)O [thapsigargin] |  |  |  |  | increased expression |  |  |  |  |  |  |  |  |  |  | increased phosphorylation | increased phosphorylation | increased expression | significantly increased |
